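Values below derive from 48-hour exposures of cells grown in 96-well plates, with endpoints linearly interpolated between the two concentrations bracketing the appropriate inhibition level. GI50 marks 50% less growth.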 Activity calls are given as the source filed them. Cut-off read from the data, not from the text of the source: active = GI50 up to about 1.1 µM and inactive = higher. *1 amine or outer side, *2 acyl side, *3 side chain or, on linkers, in order; H or OH if unused. Where a SMILES comes first, the peptide text is derived from it. [ ]: non-standard residue; d: D form. The star is where a group is joined. ξ: configuration not given here. X26 = O=C([C@H]1CCC[C@H]1N[*:1])[*:2]; ξW = NC(Cc1c[nH]c2ccccc12)C(=O)O; ξF = NC(Cc1ccccc1)C(=O)O; Boc = CC(C)(C)OC(=O)*; ξK = NCCCCC(N)C(=O)O; ξT = CC(O)C(N)C(=O)O; tBu = CC(C)(C)*

What all share (assay): NCI anticancer screen, dose series, 48 h
The subject of test [1] is A498.
In test [2] the test system is CAKI-1.
Test [3] concerns COLO 205.
For test [4], the system named is HCC 2998.
Test [5] relates to Hs-578T.
Test [6] relates to K562.
Test [7] has as its system KM12.
Test [8] has as its system M14.
For test [9], the system named is MDA-N.
For test [10], the system named is MOLT-4.
The subject of test [11] is NCI-H23.
The subject of test [12] is NCI/ADR-RES.
The subject of test [13] is SF-295.
The test system of test [14] is SK-MEL-2.
Test [15] has as its system SNB-19.
Test [16] relates to TK-10.
In test [17] the test system is UACC-257.
Test [18] relates to DU-145.
Test [19] deals with SF-539.
Test [20] deals with SNB-75.

As to `COc1cc(C2S/C(=C/c3ccccc3)C(=O)N2c2cccc([N+](=O)[O-])c2)cc(OC)c1OC` (centres undefined), the GI50 in test [1] was > 100 µM (inactive); in test [2] it was 48.8 µM (inactive); in [3], > 100 µM (inactive); in test [4] it was > 100 µM (inactive); in test [5] it was > 100 µM (inactive); in test [6], 51.5 µM (inactive). Besides, the GI50 in test [7] is 28.8 µM (inactive); in test [8] it was 72.1 µM (inactive); in [9] it was 22.9 µM (inactive); in [10], 70.3 µM (inactive); in test [11], > 100 µM (inactive); in test [12], 42.2 µM (inactive). The GI50 in test [13] is 50.1 µM (inactive); in test [14], 15.9 µM (inactive); in test [15], > 100 µM (inactive); in [16], > 100 µM (inactive); in test [17], > 100 µM (inactive).

Take `CSc1c(C(=O)Nc2ccc(C)cc2)c(N)nn1-c1ccccc1`: the GI50 in test [1] is 23.1 µM (inactive); in [2] it was 23.4 µM (inactive); in [3], > 100 µM (inactive); in [18], 42.8 µM (inactive); in test [4], 58.3 µM (inactive); in test [5] it was 46.9 µM (inactive). For the same compound, the GI50 is > 100 µM (inactive) in [6]; 36.7 µM (inactive) in [8]; > 100 µM (inactive) in [9]; > 100 µM (inactive) in test [10]; > 100 µM (inactive) in test [11]; 48.8 µM (inactive) in [13]. Also, the GI50 was 35.8 µM (inactive) in test [19]; > 100 µM (inactive) in test [14]; 26.7 µM (inactive) in [15]; 33.3 µM (inactive) in test [16]; 54 µM (inactive) in [17].

As to `O=C1c2ccccc2C(=O)c2sc(Nc3ccccc3Cl)nc21`, the GI50 in test [1] is 16.2 µM (inactive); in test [2], 4.06 µM (inactive); in test [3] it was 14.6 µM (inactive); in [18], 17.6 µM (inactive); in test [4] it was 18.5 µM (inactive); in test [5], 11.1 µM (inactive). Also, the GI50 in [6] was 2.8 µM (inactive); in test [7], 15 µM (inactive); in test [8], 5.36 µM (inactive); in test [9] it was 2.41 µM (inactive); in test [10], 3.93 µM (inactive); in test [11], 4.98 µM (inactive). For the same compound, the GI50 in test [13] is 16.1 µM (inactive); in test [19] it was 15.8 µM (inactive); in test [14], 13.6 µM (inactive); in test [15] it was 14.5 µM (inactive); in test [20], 13.6 µM (inactive); in test [16], 19.7 µM (inactive). In addition, in test [17], the GI50 was 8.34 µM (inactive).

For `O=S(=O)(SC1=NCCN1)c1cccc2ccccc12`, the GI50 in [1] was 26.1 µM (inactive); in test [2], 24.9 µM (inactive); in test [3] it was 17.8 µM (inactive); in [18] it was 29.6 µM (inactive); in test [4], > 10 µM (inactive); in [6] it was 24 µM (inactive). The GI50 in [7] was 17.9 µM (inactive); in [8] it was 27.6 µM (inactive); in test [9] it was 18.7 µM (inactive); in test [10], 27.7 µM (inactive); in test [11], 28.4 µM (inactive); in [12] it was 26.5 µM (inactive). Besides, the GI50 in test [13] is 24.1 µM (inactive); in [19], 20.3 µM (inactive); in test [14] it was 23.7 µM (inactive); in [15], 28.7 µM (inactive); in test [20], 13.8 µM (inactive); in test [17], 28.5 µM (inactive).

Consider `CN(C)CCNc1ccc(CO)c2sc3ccc(O)cc3c(=O)c12`, for which the GI50 in test [1] was 6.89 µM (inactive); in [2] it was 0.957 µM (active); in test [3] it was 4.3 µM (inactive); in test [18] it was 0.467 µM (active); in test [4], 2.58 µM (inactive); in [6], 2.06 µM (inactive). Besides, the GI50 in test [7] was 2.34 µM (inactive); in test [8], 3.01 µM (inactive); in [9] it was 1.45 µM (inactive); in [10], 0.0262 µM (active); in test [11], 0.869 µM (active); in test [12], 3.28 µM (inactive). Moreover, the GI50 in test [13] was 1 µM (active); in [19] it was 0.459 µM (active); in test [14] it was 5.21 µM (inactive); in test [15] it was 2.46 µM (inactive); in [20], 2.42 µM (inactive); in test [16] it was 8.77 µM (inactive). In addition, the GI50 in test [17] was 5.24 µM (inactive).

Regarding `CC(=O)C(=C(I)I)c1ccccc1`, the GI50 in test [1] is 22 µM (inactive); in test [2], 1.84 µM (inactive); in test [3], 15.5 µM (inactive); in test [18], 29.7 µM (inactive); in test [4], 24.5 µM (inactive); in test [6], 15 µM (inactive). The GI50 is 20.9 µM (inactive) in [7]; 14.5 µM (inactive) in [8]; 15.2 µM (inactive) in [9]; 13.4 µM (inactive) in [10]; 16.8 µM (inactive) in test [11]; 21.1 µM (inactive) in [12]. Besides, the GI50 is 25.9 µM (inactive) in test [13]; 21.1 µM (inactive) in [19]; 21.8 µM (inactive) in [14]; 18.5 µM (inactive) in test [15]; 16.7 µM (inactive) in test [17].

Turning to `C=CC[C@H]1O[Si](C(C)(C)C)(C(C)(C)C)[C@H](C)[C@H]1C`, the GI50 in test [1], in [2], in test [3], in [4], in [6] and in test [7] was > 100 µM (inactive) throughout. In addition, the GI50 in test [8], in test [9], in test [10], in test [11], in test [12] and in test [13] was > 100 µM (inactive) each time. The GI50 in [19] is > 100 µM (inactive); in test [14] it was > 100 µM (inactive); in [15], 13.6 µM (inactive); in test [20], > 100 µM (inactive); in [16] it was > 100 µM (inactive); in [17] it was > 100 µM (inactive).

Regarding `CC(=O)Oc1ccn2nc(C)c(Cc3c(C)nn4ccc(OC(C)=O)cc34)c2c1`, the GI50 in test [2] was 51.8 µM (inactive); in test [18], > 100 µM (inactive); in test [5] it was 32.4 µM (inactive); in [6], 37.8 µM (inactive); in test [7], > 100 µM (inactive); in [8] it was > 100 µM (inactive). The GI50 in test [9] was > 10 µM (inactive); in [10], 49.8 µM (inactive); in test [11], > 100 µM (inactive); in [12], > 100 µM (inactive); in test [13] it was 23 µM (inactive); in test [19], 51.4 µM (inactive). The GI50 in test [14] is 34.6 µM (inactive); in test [15], > 100 µM (inactive); in test [20], 54.8 µM (inactive); in test [16], > 100 µM (inactive); in test [17], 47.1 µM (inactive).

As for `CC(OC(C)(C)C)C1NC(=O)C(CCCCNC(=O)OC(C)(C)C)NC(=O)C(Cc2c[nH]c3ccccc23)NC(=O)C(Cc2ccccc2)NC(=O)[C@H]2CCC[C@H]2NC(=O)C(Cc2ccccc2)NC1=O` (some centres undefined) (cyclo([X26][ξF][ξW][ξK](Boc)[ξT](tBu)[ξF])), the GI50 in test [2] was > 100 µM (inactive); in [3] it was 18.9 µM (inactive); in test [18], 93.8 µM (inactive); in test [4] it was 12.2 µM (inactive); in [5], 2.67 µM (inactive); in test [6], 9.57 µM (inactive). Further, the GI50 in test [7] was > 100 µM (inactive); in test [8], 28.3 µM (inactive); in [9], 56.2 µM (inactive); in test [10] it was 14.2 µM (inactive); in test [11] it was 23.8 µM (inactive); in [12], > 100 µM (inactive). The GI50 in test [13] is 9.79 µM (inactive); in test [19] it was 75.9 µM (inactive); in [14] it was 26.1 µM (inactive); in test [15], 30 µM (inactive); in [20], 5.3 µM (inactive); in test [17] it was 5.41 µM (inactive).

As for `SCCSCCCSCCS`, the GI50 in [3] is 86.9 µM (inactive); in test [18], 56.4 µM (inactive); in test [4], > 100 µM (inactive); in test [6], 92.7 µM (inactive); in test [7] it was > 100 µM (inactive); in [8], 74.6 µM (inactive). The GI50 in test [9] is > 100 µM (inactive); in test [10], 4.97 µM (inactive); in test [11], > 100 µM (inactive); in test [12], > 100 µM (inactive); in [13] it was 76.9 µM (inactive); in test [19], > 100 µM (inactive). Besides, the GI50 in test [15] is 71.9 µM (inactive); in [20], 59.3 µM (inactive); in test [17] it was 59.3 µM (inactive).

Turning to `CN(CC(=O)O)Cc1oc(CO)cc(=O)c1O`, the GI50 in [1], in [2], in [3], in [4], in [5] and in test [6] was > 100 µM (inactive) in each case. In addition, the GI50 in test [7], in test [8], in test [9], in [10], in test [11] and in test [12] was > 100 µM (inactive) each time. For the same compound, the GI50 in [13], in [19], in [14], in test [15], in test [20] and in [16] was > 100 µM (inactive) each time. In test [17], the GI50 was > 100 µM (inactive).
